This note sets out measurements from ChEMBL document CHEMBL1201862, “PubChem BioAssay data set” (2004).

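Growth conditions: 96-well plates. Treatment: test compound, 48 hours, 5 concentrations. Analysis: linear interpolation between bracketing concentrations; unreached endpoints set to highest concentration. GI50 is the concentration that inhibits growth by half.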 Activity calls are given as the source filed them. Rule as the data show it: active = GI50 up to about 1.1 µM and inactive = higher.

Holding throughout (assay): DTP human tumour cell line panel, 48 h
In assay [1] the test system is CAKI-1.
The subject of assay [2] is HCT-15.
Assay [3] deals with KM12.
Assay [4] concerns LOX IMVI.
Assay [5] deals with M14.
The test system of assay [6] is MDA-MB-231.
For assay [7], the system named is NCI-H460.
For assay [8], the system named is OVCAR-8.
The test system of assay [9] is PC-3.
Assay [10] deals with RXF 393.
The test system of assay [11] is SF-539.
The subject of assay [12] is SK-MEL-28.
The test system of assay [13] is SK-MEL-2.
Assay [14] concerns SN12C.
Assay [15] relates to SNB-19.
Assay [16] concerns SNB-75.
The test system of assay [17] is SR.
Assay [18] deals with T47D.
Assay [19] concerns TK-10.
Assay [20] relates to UO-31.

Take `CC(=O)Nc1ccc2c3c(cc(O)c2c1)N(C(=O)CCCCCCC(=O)N1CC(CCl)c2c1cc(O)c1cc(NC(C)=O)ccc21)CC3CCl` (stereo not given): the GI50 in [1] is < 15.2 nM (active); in assay [2] it was 231 nM; in [3], 24.9 nM (active); in [4], < 10 nM (active); in [5] it was < 10 nM (active); in assay [6], 20.3 nM (active). Also, the GI50 was < 10 nM (active) in [7]; < 10 nM (active) in assay [8]; < 11.9 nM (active) in assay [9]; < 10 nM (active) in [10]; < 10 nM (active) in [11]; 14.8 nM (active) in [12]. Moreover, the 50% growth inhibitory concentration (GI50) in assay [13], in [14], in [15], in assay [16], in assay [17] and in assay [18] was < 10 nM (active) throughout. The figures for the GI50 in assay [19] and in assay [20] were 25.1 nM (active) and 50.9 nM (active), respectively.

`COc1ccc(C(C)NNC(=O)c2ccncc2)cc1OC` (stereo not given): the GI50 in assay [1] is > 100000 nM (inactive); in assay [2], > 100000 nM; in assay [3] it was > 100000 nM (inactive); in assay [4] it was > 100000 nM (inactive); in assay [5], > 100000 nM (inactive); in [6], > 100000 nM (inactive). In addition, the GI50 in [7], in assay [8], in [9], in [10], in [11] and in assay [12] was > 100000 nM (inactive) in each case. For the same compound, the GI50 in assay [13], in assay [14], in assay [15], in [16], in [17] and in assay [18] was > 100000 nM (inactive) in each case. Moreover, the GI50 in [19] and in assay [20] was > 100000 nM (inactive) each time.

With `C=C1C(=O)OC2C(C)C3C=CC(=O)[C@@]3(C)C(OC(=O)/C(C)=C/C)C1[C@@H]2OC(C)=O` (stereo not given in full), the GI50 is 553 nM (active) in assay [1]; 247 nM in assay [2]; 1460 nM (inactive) in assay [3]; 243 nM (active) in assay [4]; 673 nM (active) in assay [5]; 259 nM (active) in assay [6]. Further, the GI50 in assay [7] is 300 nM (active); in assay [8], 240 nM (active); in assay [9], 522 nM (active); in assay [10] it was 215 nM (active); in [11], 333 nM (active); in assay [12] it was 593 nM (active). The GI50 is 278 nM (active) in assay [13]; 468 nM (active) in assay [14]; 1890 nM (inactive) in assay [15]; 1100 nM (active) in [16]; 168 nM (active) in assay [17]; 336 nM (active) in assay [18]. Besides, the GI50 in assay [19] is 452 nM (active); in assay [20], 1210 nM (inactive).

Regarding `O=C1c2ccccc2C(=O)c2c1nc1ccccc1c2-c1cncc(-c2c3c(nc4ccccc24)C(=O)c2ccccc2C3=O)c1`, the GI50 was 9840 nM (inactive) in [1]; 1240 nM in assay [2]; 3610 nM (inactive) in assay [3]; 1670 nM (inactive) in assay [4]; 3180 nM (inactive) in [5]; 9310 nM (inactive) in assay [6]. Further, the GI50 is 2430 nM (inactive) in assay [7]; 1520 nM (inactive) in [8]; 2150 nM (inactive) in assay [9]; 12100 nM (inactive) in [10]; 6460 nM (inactive) in assay [11]; 12400 nM (inactive) in [12]. The GI50 in assay [13] is 8450 nM (inactive); in [14], 3980 nM (inactive); in assay [15], 23800 nM (inactive); in [16], 5690 nM (inactive); in [17] it was 1530 nM (inactive); in assay [18], 2330 nM (inactive). The GI50 was 37300 nM (inactive) in assay [19] and 1550 nM (inactive) in assay [20].

For `C=C1CC2(CC(c3ccccc3Cl)OC(c3ccccc3Cl)C2)OC1=O` (stereo not given), the GI50 in assay [1] is 2000 nM (inactive); in assay [2], 2560 nM; in assay [3], 2330 nM (inactive); in assay [4], 1380 nM (inactive); in assay [5] it was 1710 nM (inactive); in [6], 1850 nM (inactive). The GI50 is 5080 nM (inactive) in assay [7]; 2110 nM (inactive) in [8]; 2890 nM (inactive) in assay [9]; 2120 nM (inactive) in assay [10]; 1960 nM (inactive) in assay [11]; 1870 nM (inactive) in [12]. Further, the GI50 was 3430 nM (inactive) in assay [13]; 2370 nM (inactive) in [14]; 15200 nM (inactive) in assay [15]; 3170 nM (inactive) in assay [16]; 2520 nM (inactive) in [17]; 1680 nM (inactive) in [18]. In addition, the GI50 in assay [19] is 4330 nM (inactive); in assay [20] it was 5890 nM (inactive).

For the compound `COc1cccc2c1C(=O)c1ccc3cc(CO)cc(O)c3c1C2=O`, the GI50 in [1] is 2720 nM (inactive); in assay [2], 321 nM; in assay [3], 893 nM (active); in [4], 1800 nM (inactive); in [5], 245 nM (active); in assay [6] it was 594 nM (active). Besides, the GI50 was 304 nM (active) in assay [7]; 231 nM (active) in assay [8]; 215 nM (active) in [9]; 1340 nM (inactive) in assay [10]; 329 nM (active) in assay [11]; 1860 nM (inactive) in assay [12]. For the same compound, the GI50 in assay [13] was 798 nM (active); in [14] it was 748 nM (active); in assay [15], 1790 nM (inactive); in assay [16] it was 4290 nM (inactive); in [17] it was 267 nM (active); in assay [18], 1720 nM (inactive). Further, the GI50 was 3010 nM (inactive) in assay [19] and 982 nM (active) in assay [20].

Take `C=CC(C1=CC(=O)C(OC)=CC1=O)c1ccccc1` (stereo not given) [4-METHOXYDALBERGIONE]: the GI50 in assay [1] was 17200 nM (inactive); in [2], 14300 nM; in assay [3], 15700 nM (inactive); in assay [4], 16200 nM (inactive); in assay [5], 17900 nM (inactive); in assay [6], 6970 nM (inactive). For the same compound, the GI50 in [7] was 17100 nM (inactive); in assay [8], 20500 nM (inactive); in [9] it was 9530 nM (inactive); in assay [10] it was 15600 nM (inactive); in assay [11], 14200 nM (inactive); in assay [12], 15500 nM (inactive). Also, the GI50 in assay [13] is 12600 nM (inactive); in assay [14], 14300 nM (inactive); in assay [15] it was 15800 nM (inactive); in assay [16], 18100 nM (inactive); in assay [17], 3860 nM (inactive); in assay [18] it was 2650 nM (inactive). For the same compound, the GI50 in [19] is 18100 nM (inactive); in [20], 15900 nM (inactive).

Regarding `CCSc1nnc(Sc2c3ccccc3nc3ccccc23)s1`, the GI50 in assay [1] is 5330 nM (inactive); in assay [2], 3370 nM; in assay [3], 24800 nM (inactive); in [4], 6700 nM (inactive); in assay [5] it was 11500 nM (inactive); in assay [6], 18800 nM (inactive). In addition, the GI50 is 19600 nM (inactive) in assay [7]; 20300 nM (inactive) in assay [8]; 20300 nM (inactive) in assay [9]; 17200 nM (inactive) in assay [10]; 7940 nM (inactive) in [11]; 17500 nM (inactive) in [12]. In addition, the GI50 in assay [13] is 22300 nM (inactive); in [14], 15200 nM (inactive); in [15], 44200 nM (inactive); in [16], 35300 nM (inactive); in assay [17] it was 3190 nM (inactive); in assay [18], 4220 nM (inactive). Further, the GI50 in assay [19] was 6180 nM (inactive); in assay [20], 10700 nM (inactive).

Broadly, the GI50 is the concentration that inhibits growth by half.
